From patent US12371454B2, “Cyclic peptide compound having Kras inhibitory action” (priority 2019, dated 2025)
Starred links: 1 amine or outer side, 2 acyl side, 3 side chain; linkers in the order of their positions; H or OH if unused. Positions of bridges follow the written chain, without caps; N, C: chain ends. Non-standard residues stand in square brackets, D forms with d. Residues, ends and D or L forms follow the SMILES beside them. *: point of attachment. hPhe(3-Cl-4-CF3) = N[C@@H](CCc1ccc(C(F)(F)F)c(Cl)c1)C(=O)O; hPhe(4-CF3) = N[C@@H](CCc1ccc(C(F)(F)F)cc1)C(=O)O; NMePhe(3-Cl) = CN[C@@H](Cc1cccc(Cl)c1)C(=O)O; NMePhe(4-Cl) = CN[C@@H](Cc1ccc(Cl)cc1)C(=O)O; NMedβ3hAla = C[C@H](CC(=O)[*:2])N(C)[*:1]; NMePhe(2-F) = CN[C@@H](Cc1ccccc1F)C(=O)O; NMeGly(cPent) = CN[C@H](C(=O)O)C1CCCC1; NMeCha = CN[C@@H](CC1CCCCC1)C(=O)O; Azetidine(3,3-F2) = FC1(F)CN(*)C1; NMeCba = CN[C@@H](CC1CCC1)C(=O)O; NMeF = CN[C@@H](Cc1ccccc1)C(=O)O; NMeD = CN[C@@H](CC(=O)O)C(=O)O; CH2CONHtBu = CC(C)(C)NC(=O)C*; NMeL = CN[C@@H](CC(C)C)C(=O)O; NMeV = CN[C@H](C(=O)O)C(C)C; d(β3hA) = C[C@@H](N)CC(=O)O; NMeA = CN[C@@H](C)C(=O)O; NMeAib = CNC(C)(C)C(=O)O; Pyrrolidide = C1CCN(*)C1; dNMeA = CN[C@H](C)C(=O)O; Ac5c = NC1(C(=O)O)CCCC1; Aze = O=C(O)[C@@H]1CCN1; Sar = CNCC(=O)O; Propyl = CCC*

What follows are compounds tested against T1, Kras and SOS1 (biotin-tagged human Kras loaded with GDP, His-tagged human SOS1) (Homo sapiens, UniProt P01116, G12D) (assay: Protein-protein interaction inhibition between Kras and SOS1 (KrasGl2D-SOS PPI) using AlphaScreen). Details: AlphaScreen; biotin-tagged human Kras loaded with GDP, His-tagged human SOS1; read-out: KRAS G12D-SOS PPI IC50.
T1 construct: made in house; host or cells: E. coli (stated for Kras only)
T1 sequence (P01116 1-188 isoform P01116-2 G12D): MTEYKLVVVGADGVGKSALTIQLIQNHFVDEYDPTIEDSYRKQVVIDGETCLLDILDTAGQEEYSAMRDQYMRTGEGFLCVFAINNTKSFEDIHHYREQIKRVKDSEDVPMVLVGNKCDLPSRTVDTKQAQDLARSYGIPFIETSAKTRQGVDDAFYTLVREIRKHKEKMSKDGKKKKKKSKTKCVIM
Assay type: binding
Protocol: Protein-Protein Interaction Inhibition Between Kras and SOS1 (KrasGl2D-SOS PPI) Using AlphaScreen
Protein-protein interaction inhibition (PPI) between Kras and SOS1 was measured by energy transfer from nickel-conjugated donor beads to streptavidin-conjugated acceptor beads using biotin-tagged human Kras expressed in E. coli and loaded with GDP after purification and His-tagged human SOS1 enzyme. This measurement utilizes the phenomenon in which donor beads are irradiated with light at 680 nm, such that energy is transferred to acceptor beads through singlet oxygen and light at 520-620 nm is detected from the acceptor beads.
Inhibition of binding between K-ras and SOS1 is known to inhibit signaling downstream of Kras.
With CC[C@H](C)[C@@H]1NC(=O)[C@H](CC2CCCCC2)N(C)C(=O)C[C@@H](C)NC(=O)[C@H](C(C)C)N(C)C(=O)C2(CCCC2)NC(=O)[C@@H]2CCCN2C(=O)[C@H](CCc2ccc(C(F)(F)F)c(Cl)c2)NC(=O)CN(C)C(=O)[C@H](CC2CCCCC2)N(C)C(=O)[C@@H]2CCN2C(=O)[C@H](C)N(C)C1=O [Compound 38] (cyclo([Ac5c][NMeV][d(β3hA)][NMeCha]I[NMeA][Aze][NMeCha][Sar][hPhe(3-Cl-4-CF3)]P)) the IC50 was 160 nM. With CCCOC[C@@H]1NC(=O)[C@H](CC(=O)N2CC(F)(F)C2)N(C)C(=O)[C@H](CCc2ccc(C(F)(F)F)c(Cl)c2)NC(=O)CN(C)C(=O)[C@H](CC2CCCCC2)N(C)C(=O)[C@@H]2CCN2C(=O)[C@H](C)N(C)C(=O)[C@H]([C@@H](C)CC)NC(=O)[C@H](CC(C)C)N(C)C(=O)C[C@@H](C(=O)N(C)C)N(C)C(=O)[C@H](C2CCCC2)N(C)C1=O [Compound 41] ([NMeL]I[NMeA][Aze][NMeCha][Sar][hPhe(3-Cl-4-CF3)][NMeD](Azetidine(3,3-F2))S(Propyl)[NMeGly(cPent)][NMeD]-NMe2; lactam N-11) the IC50 was 11 nM. In the case of CC[C@H](C)[C@@H]1NC(=O)[C@H](C)N(C)C(=O)C[C@@H](C)NC(=O)[C@H](C2CCCC2)N(C)C(=O)C2(CCCC2)NC(=O)[C@@H]2CCCN2C(=O)[C@H](CCc2ccc(C(F)(F)F)c(Cl)c2)NC(=O)[C@@H](C)N(C)C(=O)[C@H](Cc2cccc(Cl)c2)N(C)C(=O)[C@@H]2CCN2C(=O)[C@H](C)N(C)C1=O [Compound 42] (cyclo([Ac5c][NMeGly(cPent)][d(β3hA)][NMeA]I[NMeA][Aze][NMePhe(3-Cl)][dNMeA][hPhe(3-Cl-4-CF3)]P)), the IC50 is reported as 190 nM. CC[C@H](C)[C@@H]1NC(=O)[C@H](CC(C)C)N(C)C(=O)C[C@@H](C(=O)N(C)C)N(C)C(=O)[C@H](C2CCCC2)N(C)C(=O)C2(CCCC2)NC(=O)[C@H](Cc2ccccc2F)N(C)C(=O)[C@H](CCc2ccc(C(F)(F)F)c(Cl)c2)NC(=O)CN(C)C(=O)[C@H](CC2CCCCC2)N(C)C(=O)[C@@H]2CCN2C(=O)[C@H](C)N(C)C1=O [Compound 43] ([NMeL]I[NMeA][Aze][NMeCha][Sar][hPhe(3-Cl-4-CF3)][NMePhe(2-F)][Ac5c][NMeGly(cPent)][NMeD]-NMe2; lactam N-11) showed an IC50 of 31 nM. CC[C@H](C)[C@@H]1NC(=O)[C@H](C)N(C)C(=O)C[C@@H](C(=O)N2CCCC2)NC(=O)[C@H](CC(C)C)N(C)C(=O)[C@H](CC(C)C)N(C)C(=O)[C@H](CC(C)C)NC(=O)[C@H](CCc2ccc(C(F)(F)F)cc2)NC(=O)CN(C)C(=O)[C@H](Cc2ccc(Cl)cc2)N(C)C(=O)CN(C)C(=O)CN(C)C1=O [Compound 46] ([NMeA]I[Sar][Sar][NMePhe(4-Cl)][Sar][hPhe(4-CF3)]L[NMeL][NMeL]D-Pyrrolidide; lactam N-11) gave an IC50 of 120 nM. With CC[C@H](C)[C@@H]1NC(=O)[C@H](C)N(C)C(=O)C[C@@H](C(=O)N2CCCC2)NC(=O)[C@H](CC(C)C)N(C)C(=O)[C@H](Cc2ccccc2)N(C)C(=O)[C@H](CC(C)C)NC(=O)[C@H](CCc2ccc(C(F)(F)F)cc2)NC(=O)CN(C)C(=O)[C@H](Cc2ccc(Cl)cc2)N(C)C(=O)CN(C)C(=O)CN(C)C1=O [Compound 50] ([NMeA]I[Sar][Sar][NMePhe(4-Cl)][Sar][hPhe(4-CF3)]L[NMeF][NMeL]D-Pyrrolidide; lactam N-11) the IC50 was 28 nM. Compound CC[C@H](C)[C@@H]1NC(=O)[C@H](C)N(C)C(=O)C[C@@H](C(=O)N2CCCC2)NC(=O)[C@H](CC(C)C)N(C)C(=O)[C@H](COCC(=O)NC(C)(C)C)NC(=O)[C@H](CC(C)C)NC(=O)[C@H](CCc2ccc(C(F)(F)F)cc2)NC(=O)CN(C)C(=O)[C@H](Cc2ccc(Cl)cc2)N(C)C(=O)CN(C)C(=O)CN(C)C1=O [Compound 53] ([NMeA]I[Sar][Sar][NMePhe(4-Cl)][Sar][hPhe(4-CF3)]LS(CH2CONHtBu)[NMeL]D-Pyrrolidide; lactam N-11) has an IC50 of 120 nM. CC[C@H](C)[C@@H]1NC(=O)[C@H](CC(C)C)N(C)C(=O)C[C@@H](C)N(C)C(=O)[C@H](CC(C)C)NC(=O)C(C)(C)N(C)C(=O)[C@H](CC(C)C)NC(=O)[C@H](CCc2ccc(C(F)(F)F)c(Cl)c2)NC(=O)CN(C)C(=O)[C@H](CC2CCCCC2)N(C)C(=O)[C@@H]2CCN2C(=O)CN(C)C1=O [Compound 57] (cyclo([Aze][NMeCha][Sar][hPhe(3-Cl-4-CF3)]L[NMeAib]L[NMedβ3hAla][NMeL]I[Sar])) showed an IC50 of 16 nM. For CC[C@H](C)[C@@H]1NC(=O)[C@H](CC(C)C)N(C)C(=O)C[C@@H](C)NC(=O)[C@H](CC2CCC2)N(C)C(=O)C2(CCCC2)NC(=O)[C@@H]2CCCN2C(=O)[C@H](CCc2ccc(C(F)(F)F)c(Cl)c2)NC(=O)CN(C)C(=O)[C@H](CC2CCCCC2)N(C)C(=O)CN(C)C(=O)CN(C)C1=O [Compound 59] (cyclo([Ac5c][NMeCba][d(β3hA)][NMeL]I[Sar][Sar][NMeCha][Sar][hPhe(3-Cl-4-CF3)]P)), the IC50 was 36 nM.
